Experimental data: US10165776B2, “Substituted pyrazolylpyrazole derivative and use of same as herbicide” (KYOYU AGRI CO., LTD., priority 2015, dated 2019)

Legend:
Type in all cases: in vivo
Oryza sativa = assay: Paddy herbicidal activity test, phytotoxicity to transplanted rice; conditions: rice transplanted at 2.0 leaf stage, 30 days at 30° C.
Description: (§1) Rice paddy soil was filled into a 1/10000 are pot followed by the addition of suitable amounts of water and chemical fertilizer, kneading, seeding with Echinochloa crus-galli, Monochoria vaginalis and Scirpus juncoides and maintaining in an irrigated state at a water depth of 3 cm. Wettable powders of Target Compound (I) shown in Table 1 prepared in compliance with the preparation examples were diluted with a suitable amount of water, rice plants in the 2.0 leaf stage were transplanted during 3.5 leaf stage of Echinochloa crus-galli, and treated by dropping in chemical in the prescribed amount per 10 are using a pipette. After treating for 30 days in a glass greenhouse at an average atmospheric temperature of 30° C., the herbicidal efficacy thereof was investigated. Evaluation of herbicidal efficacy was carried out by comparing growth inhibition rate (%) with an untreated group, while evaluation of phytotoxicity was carried out by comparing growth inhibition rate (%) with the state of a complete eradication group, and were evaluated at 11 levels indicated below.

Digitaria ciliaris [1] = assay: Weed foliar treatment test (Test 3, 1.0 to 2.0 leaf stage); conditions: foliar spray at 1.0 to 2.0 leaf stage of Digitaria ciliaris, 3 weeks at 25° C.
Description: (§2) Soil was filled into a 1/6000 are pot followed by seeding with Digitaria ciliaris, Chenopodium album and Amaranthus retroflexus, covering with soil, and cultivating in a glass greenhouse at an average atmospheric temperature of 25° C. Wettable powders of Target Compound (I) shown in Table 1 prepared in compliance with the preparation examples were diluted with water to the prescribed amount of chemical and uniformly sprayed onto the weeds using 150 liters of sprayed water per 10 are when Digitaria ciliaris had grown to the 1.0 to 2.0 leaf stage. After treating for 3 weeks in a glass greenhouse at an average atmospheric temperature of 25° C., the herbicidal efficacy thereof was investigated. Evaluation of herbicidal efficacy was carried out in the same manner as the above-mentioned Test Example 1.

Amaranthus retroflexus [2] = assay: as above; conditions: foliar spray at 1.0 to 2.0 leaf stage of Digitaria ciliaris, 3 weeks at 25° C.
Description: as §2

Chenopodium album [3] = assay: as above; conditions: foliar spray at 1.0 to 2.0 leaf stage of Digitaria ciliaris, 3 weeks at 25° C.
Description: as §2

Digitaria ciliaris [4] = assay: Weed foliar treatment test (Test 4, 4.0 to 5.0 leaf stage); conditions: 10 g a.i./10 a; foliar spray at 4.0 to 5.0 leaf stage of Digitaria ciliaris (plant height 10 cm to 15 cm); 20 days at 25° C.
In short: (§3)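 Potted Digitaria ciliaris and Galinsoga parviflora grown in field soil in a glasshouse at 25° C; wettable-powder formulations diluted in water and foliar-sprayed at 100 L per 10 are when D. ciliaris reached the 4.0–5.0 leaf stage (10–15 cm). Herbicidal efficacy scored 20 days after treatment at 25° C.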

Galinsoga parviflora = assay: as above; conditions: 10 g a.i./10 a; foliar spray at 4.0 to 5.0 leaf stage of Digitaria ciliaris (plant height 10 cm to 15 cm); 20 days at 25° C.
In short: as §3

Digitaria ciliaris [5] = assay: Farming soil treatment test; conditions: soil surface spray prior to weed growth, 30 days at 30° C.
Description: (§4) Field soil was filled into a 1/6000 are pot followed by seeding with Digitaria ciliaris, Chenopodium album and Amaranthus retroflexus and covering with soil. Wettable powders of compounds of formula (I) shown in Table 1 prepared in compliance with the preparation examples were diluted with water to the prescribed amount of chemical and uniformly sprayed onto each soil surface layer using 100 liters of sprayed water per 10 are prior to weed growth following seeding. After treating for 30 days in a glass greenhouse at an average atmospheric temperature of 30° C., the herbicidal efficacy thereof was investigated. Evaluation of herbicidal efficacy was carried out in the same manner as the above-mentioned Test Example 1.

Amaranthus retroflexus [6] = assay: Farming soil treatment test; conditions: soil surface spray prior to weed growth, 30 days at 30° C.
Description: as §4

Chenopodium album [7] = assay: Farming soil treatment test; conditions: soil surface spray prior to weed growth, 30 days at 30° C.
Description: as §4

Monochoria vaginalis = assay: Paddy herbicidal activity test; conditions: irrigated pot, treated at 3.5 leaf stage of Echinochloa crus-galli, 30 days at 30° C.
Description: as §1

Scirpus juncoides = assay: Paddy herbicidal activity test; conditions: irrigated pot, treated at 3.5 leaf stage of Echinochloa crus-galli, 30 days at 30° C.
Description: as §1

Echinochloa crus-galli = assay: Paddy herbicidal activity test; conditions: irrigated pot, treated at 3.5 leaf stage of Echinochloa crus-galli, 30 days at 30° C.
Description: as §1

N#Cc1cnn(-c2nn3c(c2Cl)CCCC3)c1NC(=O)c1ccccc1 [Control agent 4.192, reference compound]
phytotoxicity, Oryza sativa (Oryza sativa; 1 g a.i./10 a): 1 (1: 10% to less than 20%)
phytotoxicity, Oryza sativa (Oryza sativa; 5 g a.i./10 a): 1 (1: 10% to less than 20%)
herbicidal efficacy, Digitaria ciliaris (Digitaria ciliaris [1]; 5 g a.i./10 a): 1 (1: 10% to less than 20%)
herbicidal efficacy, Digitaria ciliaris (Digitaria ciliaris [1]; 10 g a.i./10 a): 2 (2: 20% to less than 30%)
herbicidal efficacy, Amaranthus retroflexus (Amaranthus retroflexus [2]; 5 g a.i./10 a): 3 (3: 30% to less than 40%)
herbicidal efficacy, Amaranthus retroflexus (Amaranthus retroflexus [2]; 10 g a.i./10 a): 4 (4: 40% to less than 50%)
herbicidal efficacy, Chenopodium album (Chenopodium album [3]; 5 g a.i./10 a): 4 (4: 40% to less than 50%)
herbicidal efficacy, Chenopodium album (Chenopodium album [3]; 10 g a.i./10 a): 5 (5: 50% to less than 60%)
herbicidal efficacy, Digitaria ciliaris (Digitaria ciliaris [4]): 0 (0 (exponent): 0% to less than 10% (growth inhibition rate))
herbicidal efficacy, Galinsoga parviflora (Galinsoga parviflora): 2 (2: 20% to less than 30%)
herbicidal efficacy, Digitaria ciliaris (Digitaria ciliaris [5]; 5 g a.i./10 a): 0 (0 (exponent): 0% to less than 10% (growth inhibition rate))
herbicidal efficacy, Digitaria ciliaris (Digitaria ciliaris [5]; 10 g a.i./10 a): 2 (2: 20% to less than 30%)
herbicidal efficacy, Amaranthus retroflexus (Amaranthus retroflexus [6]; 5 g a.i./10 a): 0 (0 (exponent): 0% to less than 10% (growth inhibition rate))
herbicidal efficacy, Amaranthus retroflexus (Amaranthus retroflexus [6]; 10 g a.i./10 a): 1 (1: 10% to less than 20%)
herbicidal efficacy, Chenopodium album (Chenopodium album [7]; 5 g a.i./10 a): 2 (2: 20% to less than 30%)
herbicidal efficacy, Chenopodium album (Chenopodium album [7]; 10 g a.i./10 a): 3 (3: 30% to less than 40%)
herbicidal efficacy, Monochoria vaginalis (Monochoria vaginalis; 1 g a.i./10 a): 1 (1: 10% to less than 20%)
herbicidal efficacy, Monochoria vaginalis (Monochoria vaginalis; 5 g a.i./10 a): 2 (2: 20% to less than 30%)
herbicidal efficacy, Scirpus juncoides (Scirpus juncoides; 1 g a.i./10 a): 3 (3: 30% to less than 40%)
herbicidal efficacy, Scirpus juncoides (Scirpus juncoides; 5 g a.i./10 a): 4 (4: 40% to less than 50%)
herbicidal efficacy, Echinochloa crus-galli (Echinochloa crus-galli; 1 g a.i./10 a): 4 (4: 40% to less than 50%)
herbicidal efficacy, Echinochloa crus-galli (Echinochloa crus-galli; 5 g a.i./10 a): 4 (4: 40% to less than 50%)
